This note sets out measurements from PubChem BioAssay AID1745844 (Carcinogenic Potency Database (CPDB), 2022).

The source made the active and inactive calls. No rule for the calls is given here.

In the series the test system is rodent lifetime carcinogenesis bioassay, tumor incidence TD50. In words: chronic cancer bioassays in animals – CPDB, compiled studies (AID 1745844).

For the molecule `NC(=O)C(=Cc1ccc([N+](=O)[O-])o1)c1ccco1`, the TD50 (in general, the 50% point of the dose-response relation for the toxic effect studied) is, setting by setting: (hamster, strain Syrian Golden, females, in feed, site: esophagus, lesion: papilloma, dosed 94 weeks, study length 94 weeks) 2340 mg/kg/day; (hamster, strain Syrian Golden, females, in feed, site: forestomach, lesion: several types, types named in the paper, dosed 94 weeks, study length 94 weeks) 59.1 mg/kg/day; (hamster, strain Syrian Golden, females, in feed, site: forestomach, lesion: squamous-cell carcinoma, dosed 94 weeks, study length 94 weeks) 2340 mg/kg/day; (hamster, strain Syrian Golden, males, in feed, site: esophagus, lesion: several types, types named in the paper, dosed 94 weeks, study length 94 weeks) 328 mg/kg/day; (hamster, strain Syrian Golden, males, in feed, site: esophagus, lesion: squamous-cell carcinoma, dosed 94 weeks, study length 94 weeks) 2180 mg/kg/day; (hamster, strain Syrian Golden, males, in feed, site: forestomach, lesion: several types, types named in the paper, dosed 94 weeks, study length 94 weeks) 30.5 mg/kg/day. For the same molecule, the TD50 was 164 mg/kg/day (hamster, strain Syrian Golden, males, in feed, site: forestomach, lesion: squamous-cell carcinoma, dosed 94 weeks, study length 94 weeks); 714 mg/kg/day (mouse, strain CDF1, females, in feed, site: forestomach, lesion: papilloma, dosed 78 weeks, study length 104 weeks); 2540 mg/kg/day (mouse, strain CDF1, females, in feed, site: forestomach, lesion: squamous-cell carcinoma, dosed 78 weeks, study length 104 weeks); 16400 mg/kg/day (mouse, strain CDF1, females, in feed, site: lung, lesion: one or several types, types not named, dosed 78 weeks, study length 104 weeks); 753 mg/kg/day (mouse, strain CDF1, males, in feed, site: forestomach, lesion: papilloma, dosed 78 weeks, study length 104 weeks); 928 mg/kg/day (mouse, strain CDF1, males, in feed, site: forestomach, lesion: squamous-cell carcinoma, dosed 78 weeks, study length 104 weeks). For the same molecule, the TD50 was 9270 mg/kg/day (mouse, strain CDF1, males, in feed, site: lung, lesion: one or several types, types not named, dosed 78 weeks, study length 104 weeks); 60.8 mg/kg/day (mouse, strain DDY, males, in feed, site: any site (literature study), lesion: several types, types named in the paper, dosed 44 weeks, study length 80 weeks); 60.8 mg/kg/day (mouse, strain DDY, males, in feed, site: forestomach, lesion: several types, types named in the paper, dosed 44 weeks, study length 80 weeks); 72.9 mg/kg/day (mouse, strain DDY, males, in feed, site: forestomach, lesion: squamous-cell carcinoma, dosed 44 weeks, study length 80 weeks); 299 mg/kg/day (mouse, strain DDY, males, in feed, site: lung, lesion: adenoma, dosed 44 weeks, study length 80 weeks); 1800 mg/kg/day (mouse, strain ICR/Jcl, females, in feed, site: all sites, lesion: leukemia, dosed 62 weeks, study length 62 weeks). Also, the TD50 reads like this: (mouse, strain ICR/Jcl, females, in feed, site: forestomach, lesion: several types, types named in the paper, dosed 62 weeks, study length 62 weeks) 95 mg/kg/day; (mouse, strain ICR/Jcl, females, in feed, site: forestomach, lesion: squamous-cell carcinoma, dosed 62 weeks, study length 62 weeks) 225 mg/kg/day; (mouse, strain ICR/Jcl, females, in feed, site: liver, lesion: hepatocellular tumor, dosed 104 weeks, study length 104 weeks) 7070 mg/kg/day (inactive); (mouse, strain ICR/Jcl, males, in feed, site: forestomach, lesion: several types, types named in the paper, dosed 62 weeks, study length 62 weeks) 90.3 mg/kg/day; (mouse, strain ICR/Jcl, males, in feed, site: forestomach, lesion: squamous-cell carcinoma, dosed 62 weeks, study length 62 weeks) 208 mg/kg/day; (rat, strain Sprague-Dawley, females, in feed, site: mammary gland, lesion: adenocarcinoma, dosed 46 weeks, study length 66 weeks) 26.4 mg/kg/day. Besides, the TD50 reads like this: (rat, strain Sprague-Dawley, females, in feed, site: mammary gland, lesion: several types, types named in the paper, dosed 46 weeks, study length 66 weeks) 11.4 mg/kg/day; (rat, strain Wistar, females, in feed, site: forestomach, lesion: papilloma, dosed 78 weeks, study length 104 weeks) 424 mg/kg/day; (rat, strain Wistar, females, in feed, site: liver, lesion: hemangioendothelial sarcoma, dosed 78 weeks, study length 104 weeks) 2000 mg/kg/day; (rat, strain Wistar, females, in feed, site: mammary gland, lesion: several types, types named in the paper, dosed 78 weeks, study length 104 weeks) 74.7 mg/kg/day; (rat, strain Wistar, males, in feed, site: forestomach, lesion: papilloma, dosed 78 weeks, study length 104 weeks) 409 mg/kg/day; (rat, strain Wistar, males, in feed, site: liver, lesion: hemangioendothelial sarcoma, dosed 78 weeks, study length 104 weeks) 1600 mg/kg/day. The TD50 (rat, strain Wistar, males, in feed, site: mammary gland, lesion: several types, types named in the paper, dosed 78 weeks, study length 104 weeks) was 1200 mg/kg/day. For the same molecule, the carcinogen call (mouse, strain ICR/Jcl, males, in feed, site: liver, lesion: hepatocellular tumor, dosed 104 weeks, study length 104 weeks) is “negative (inactive)”.
As for `O=NN1CCCCCC1`, the TD50 by setting is: (mouse, strain BALB/c, females, by gavage, site: esophagus, lesion: squamous-cell papilloma, dosed 30 weeks, study length 49 weeks) 19.7 mg/kg/day; (mouse, strain BALB/c, females, by gavage, site: liver, lesion: several types, types named in the paper, dosed 30 weeks, study length 49 weeks) 0.797 mg/kg/day; (mouse, strain BALB/c, females, by gavage, site: lung, lesion: several types, types named in the paper, dosed 30 weeks, study length 49 weeks) 7.44 mg/kg/day; (mouse, strain BALB/c, females, by gavage, site: nasal mucosa, lesion: several types, types named in the paper, dosed 30 weeks, study length 49 weeks) 4.5 mg/kg/day; (mouse, strain Charles River CD1, females, by gavage, site: esophagus, lesion: squamous-cell papilloma, dosed 30 weeks, study length 62 weeks) 12.7 mg/kg/day; (mouse, strain Charles River CD1, females, by gavage, site: forestomach, lesion: several types, types named in the paper, dosed 30 weeks, study length 62 weeks) 5.65 mg/kg/day. The TD50 by setting is: (mouse, strain Charles River CD1, females, by gavage, site: liver, lesion: several types, types named in the paper, dosed 30 weeks, study length 62 weeks) 0.746 mg/kg/day; (mouse, strain Charles River CD1, females, by gavage, site: lung, lesion: several types, types named in the paper, dosed 30 weeks, study length 62 weeks) 2.71 mg/kg/day; (mouse, strain Charles River CD1, females, by gavage, site: nasal mucosa, lesion: one or several types, types not named, dosed 30 weeks, study length 62 weeks) 26 mg/kg/day; (mouse, strain NZO/BlGd, females, in drinking water, site: esophagus, lesion: several types, types named in the paper, dosed 32 weeks, study length 74 weeks) 0.725 mg/kg/day; (mouse, strain NZO/BlGd, females, in drinking water, site: liver, lesion: hepatocellular carcinoma, dosed 32 weeks, study length 74 weeks) 3.21 mg/kg/day; (mouse, strain NZO/BlGd, females, in drinking water, site: oropharynx, lesion: several types, types named in the paper, dosed 32 weeks, study length 74 weeks) 6.37 mg/kg/day. The TD50 reads like this: (mouse, strain NZO/BlGd, females, in drinking water, site: stomach, glandular, lesion: several types, types named in the paper, dosed 32 weeks, study length 74 weeks) 4.05 mg/kg/day; (mouse, strain NZO/BlGd, females, in drinking water, site: stomach, squamous, lesion: several types, types named in the paper, dosed 32 weeks, study length 74 weeks) 0.415 mg/kg/day; (mouse, strain NZO/BlGd, males, in drinking water, site: esophagus, lesion: several types, types named in the paper, dosed 32 weeks, study length 60 weeks) 0.313 mg/kg/day; (mouse, strain NZO/BlGd, males, in drinking water, site: liver, lesion: hepatocellular carcinoma, dosed 32 weeks, study length 60 weeks) 8.03 mg/kg/day; (mouse, strain NZO/BlGd, males, in drinking water, site: lung, lesion: several types, types named in the paper, dosed 32 weeks, study length 60 weeks) 1.93 mg/kg/day; (mouse, strain NZO/BlGd, males, in drinking water, site: oropharynx, lesion: several types, types named in the paper, dosed 32 weeks, study length 60 weeks) 1.41 mg/kg/day. Also, the TD50 (mouse, strain NZO/BlGd, males, in drinking water, site: stomach, glandular, lesion: several types, types named in the paper, dosed 32 weeks, study length 60 weeks) was 3.23 mg/kg/day; the TD50 (mouse, strain NZO/BlGd, males, in drinking water, site: stomach, squamous, lesion: several types, types named in the paper, dosed 32 weeks, study length 60 weeks) was 0.448 mg/kg/day; the TD50 (mouse, strain SENCAR, females, by gavage, site: esophagus, lesion: squamous-cell papilloma, dosed 30 weeks, study length 67 weeks) is 6.47 mg/kg/day; the TD50 (mouse, strain SENCAR, females, by gavage, site: forestomach, lesion: several types, types named in the paper, dosed 30 weeks, study length 67 weeks) was 2.25 mg/kg/day; the TD50 (mouse, strain SENCAR, females, by gavage, site: liver, lesion: several types, types named in the paper, dosed 30 weeks, study length 67 weeks) is 1.92 mg/kg/day; the TD50 (mouse, strain SENCAR, females, by gavage, site: lung, lesion: several types, types named in the paper, dosed 30 weeks, study length 67 weeks) was 0.783 mg/kg/day. For the same molecule, under “mouse, strain SENCAR, females, by gavage, site: nasal mucosa, lesion: several types, types named in the paper, dosed 30 weeks, study length 67 weeks”, the TD50 was 6.47 mg/kg/day.
Take `CC(C)N=[N+]([O-])C(C)C`: the TD50 (rat, strain Sprague-Dawley, males, by gavage, site: liver, lesion: hepatocellular carcinoma, dosed 26 weeks, study length 77 weeks) was determined as 0.00736 mg/kg/day and the TD50 (rat, strain Sprague-Dawley, males, by gavage, site: skin, lesion: keratoacanthoma, dosed 26 weeks, study length 77 weeks) was 0.00268 mg/kg/day.
Turning to `c1ccc2c(c1)[nH]c1ccccc12`, the TD50 is, setting by setting: (mouse, strain B6C3F1, females, in feed, site: forestomach, lesion: papilloma, dosed 96 weeks, study length 104 weeks) 1290 mg/kg/day; (mouse, strain B6C3F1, females, in feed, site: forestomach, lesion: several types, types named in the paper, dosed 96 weeks, study length 104 weeks) 1960 mg/kg/day; (mouse, strain B6C3F1, females, in feed, site: liver, lesion: hepatocellular carcinoma, dosed 96 weeks, study length 104 weeks) 102 mg/kg/day; (mouse, strain B6C3F1, males, in feed, site: forestomach, lesion: papilloma, dosed 96 weeks, study length 104 weeks) 7030 mg/kg/day; (mouse, strain B6C3F1, males, in feed, site: forestomach, lesion: several types, types named in the paper, dosed 96 weeks, study length 104 weeks) 2790 mg/kg/day; (mouse, strain B6C3F1, males, in feed, site: forestomach, lesion: squamous-cell carcinoma, dosed 96 weeks, study length 104 weeks) 4940 mg/kg/day. For the same molecule, the TD50 (mouse, strain B6C3F1, males, in feed, site: liver, lesion: hepatocellular carcinoma, dosed 96 weeks, study length 104 weeks) was 424 mg/kg/day.
With `CC(=O)[O-].CC(=O)[O-].[Cd+2]`, the carcinogen call was “negative (inactive)” (mouse, strain Charles River CD1, females, in drinking water, site: any site (literature study), lesion: one or several types, types not named, dosed 130 weeks, study length 130 weeks); “negative (inactive)” (mouse, strain Charles River CD1, females, in drinking water, site: lung, lesion: carcinoma, dosed 130 weeks, study length 130 weeks); “negative (inactive)” (mouse, strain Charles River CD1, males, in drinking water, site: any site (literature study), lesion: one or several types, types not named, dosed 120 weeks, study length 120 weeks); “negative (inactive)” (mouse, strain Charles River CD1, males, in drinking water, site: lung, lesion: carcinoma, dosed 120 weeks, study length 120 weeks). The TD50 (rat, strain Long-Evans BLU:(LE), both sexes, in drinking water, site: any site (literature study), lesion: malignant tumor, dosed 175 weeks, study length 175 weeks) was 5.1 mg/kg/day (inactive); the TD50 (rat, strain Long-Evans BLU:(LE), both sexes, in drinking water, site: any site (literature study), lesion: one or several types, types not named, dosed 175 weeks, study length 175 weeks) is 1.81 mg/kg/day (inactive); the TD50 (rat, strain Long-Evans BLU:(LE), both sexes, in drinking water, site: liver, lesion: one or several types, types not named, dosed 175 weeks, study length 175 weeks) is 37.7 mg/kg/day (inactive).
